Holding throughout (assay): chemiluminescence-based AMP detection (AMP-Glo) deadenylase assay
What all share (format): biochemical

The target of one assay is T1, human Caf1/CNOT7 (Homo sapiens, UniProt Q9UIV1).
T1 construct: isolated recombinant wild-type Caf1 subunit, expressed and purified from Escherichia coli BL21(DE3)
The settings on record: read-out: IC50 (μM) vs Caf1 ^b. From the text: chemiluminescence-based AMP detection (AMP-Glo) deadenylase assay on human Caf1/CNOT7

The target of assay [1] is T2, human pentameric central module (BTG2-Caf1/CNOT7-Ccr4/CNOT6L-CNOT1-CNOT9) of Ccr4-Not (Homo sapiens, UniProt Q9UIV1).
T2 construct: pentamer reconstituted from separately purified nuclease module and CNOT1 (MIF4G and DUF3819 domains, 1093-1595)-CNOT9 (ARM domain, 33-283) dimer; E. coli; with CCR4-NOT transcription complex subunit 6-like; Protein BTG2; CCR4-NOT transcription complex subunit 1; CCR4-NOT transcription complex subunit 9
Conditions: read-out: IC50 (μM) vs pentameric Caf1-complex ^d.

The target in assay [2] is T3, trimeric human nuclease module (BTG2-Caf1/CNOT7-Ccr4/CNOT6L) (Homo sapiens, UniProt Q9UIV1).
T3 construct: trimeric complex co-expressed from pQE80L-BTG2 and pACYC-Duet1-Strep-CNOT6L-CNOT7 in E. coli; with CCR4-NOT transcription complex subunit 6-like; Protein BTG2
The settings on record: read-out: IC50 (μM) vs trimeric Caf1-complex ^c.

Molecules are shown by their SMILES.

T3 sequence (Q9UIV1 whole entry, other chains not shown): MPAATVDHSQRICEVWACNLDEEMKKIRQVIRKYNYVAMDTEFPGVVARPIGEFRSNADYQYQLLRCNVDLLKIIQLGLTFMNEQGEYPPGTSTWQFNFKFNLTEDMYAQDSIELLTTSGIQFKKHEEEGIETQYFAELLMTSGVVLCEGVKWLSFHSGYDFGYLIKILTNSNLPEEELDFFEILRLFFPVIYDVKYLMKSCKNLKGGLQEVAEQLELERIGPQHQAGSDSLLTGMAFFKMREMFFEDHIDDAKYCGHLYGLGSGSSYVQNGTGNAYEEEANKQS
T3 sequence (P78543 whole entry partner, other chains not shown): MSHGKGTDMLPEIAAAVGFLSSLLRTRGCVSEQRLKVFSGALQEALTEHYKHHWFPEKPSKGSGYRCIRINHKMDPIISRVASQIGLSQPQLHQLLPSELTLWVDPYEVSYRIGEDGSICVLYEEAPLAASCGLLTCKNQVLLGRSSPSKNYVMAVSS
T1 sequence (Q9UIV1 whole entry): as the sequence (Q9UIV1 whole entry, other chains not shown) above
T2 sequence (Q9UIV1 whole entry, other chains not shown, the tested form may be a part): as the sequence (Q9UIV1 whole entry, other chains not shown) above
T2 sequence (P78543 whole entry partner, other chains not shown, the tested form may be a part): as the sequence (P78543 whole entry partner, other chains not shown) above
T2 sequence (A5YKK6 1093-1595 partner, other chains not shown): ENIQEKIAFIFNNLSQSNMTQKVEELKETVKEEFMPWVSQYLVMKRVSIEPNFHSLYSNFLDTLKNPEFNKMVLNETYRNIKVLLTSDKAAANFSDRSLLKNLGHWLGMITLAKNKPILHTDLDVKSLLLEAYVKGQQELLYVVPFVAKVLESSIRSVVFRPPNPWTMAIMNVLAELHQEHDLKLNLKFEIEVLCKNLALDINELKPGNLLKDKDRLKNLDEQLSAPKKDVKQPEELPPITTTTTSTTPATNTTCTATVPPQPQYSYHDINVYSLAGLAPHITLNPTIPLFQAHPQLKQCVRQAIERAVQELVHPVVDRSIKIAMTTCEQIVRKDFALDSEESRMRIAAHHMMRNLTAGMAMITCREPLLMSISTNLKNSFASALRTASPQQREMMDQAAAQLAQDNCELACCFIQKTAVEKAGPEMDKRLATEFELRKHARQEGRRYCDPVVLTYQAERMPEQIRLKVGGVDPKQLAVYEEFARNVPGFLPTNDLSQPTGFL
T2 sequence (Q92600 33-283 partner, other chains not shown): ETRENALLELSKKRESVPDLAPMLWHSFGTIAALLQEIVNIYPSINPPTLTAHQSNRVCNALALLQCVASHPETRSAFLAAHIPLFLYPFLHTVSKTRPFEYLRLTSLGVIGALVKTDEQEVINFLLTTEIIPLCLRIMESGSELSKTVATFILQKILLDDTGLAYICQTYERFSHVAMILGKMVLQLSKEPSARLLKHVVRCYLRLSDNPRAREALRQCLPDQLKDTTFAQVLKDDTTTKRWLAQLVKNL

Consider `O=c1[nH]c2ncn(Cc3ccccc3)c2c(=O)n1O` [compound 1, 1-hydroxy-xanthine compound 1], for which the IC50 on human Caf1/CNOT7 amounted to 12.7 ± 0.9 µM; in assay [1], 10.8 ± 0.2 µM; in assay [2], 13.6 ± 0.6 µM.
The corresponding values for `CN(C)CCCn1c(=O)n(O)c(=O)c2c1ncn2CCc1ccccc1` [compound 5, 1-hydroxy-xanthine compound 5] are 0.79 ± 0.09 µM, 0.98 ± 0.07 µM and 1 ± 0.2 µM.

Values taken from article PMC6443996, “1‐Hydroxy‐xanthine derivatives inhibit the human Caf1 nuclease and Caf1‐containing nuclease complexes via Mg^2+‐dependent binding” (FEBS Open Bio, 2019).
